From US4192871A, “Chemical compounds” (Glaxo Laboratories Limited, priority 1976, dated 1980)
Structures can show the parent of a compound that is named as a salt.

Key:
[1] = anaesthetic activity tests (intravenous administration); type: in vivo; conditions: compound and salts
Text: In the tests we have carried out, the compounds of the invention have been shown generally to be good anaesthetics, usually giving instantaneous induction of anaesthesia when administered intravenously. […] The compounds of the invention are of use for inducing anaesthesia which is to be maintained for example by an inhalation anaesthetic, such as ether, halothane, nitrous oxide or trichloroethylene. The compounds may also be capable of maintaining anaesthesia to a sufficient degree to enable surgical operations to be conducted without the aid of an inhalation anaesthetic, the anaesthesia being maintained if necessary by repeated or continuous administration. The compounds may have other desirable central nervous system depressant activities, for example they may be of use as sedatives.

[2] = pH of the salt solutions; type: physicochemical
Method in brief: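 Aminoester free base mixed with 1 molar part acid in water, stirred or shaken, with extra acid or ethanol evaporation in some methods, then made up with water to set weight. Undissolved base collected and weighed to calculate dissolved base; solution membrane-filtered and pH measured.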

[3] = dissolution of the 11β-aminoester salts in aqueous acid (Table 5 and Examples 101, 225-229); type: physicochemical; conditions: for concentration of aqueous solution of the citrate: citric acid monohydrate in water, filtered solution
Method in brief: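 11β-Aminoester free base combined with 1 molar part of acid (citric acid as monohydrate) in water, with extra acid or prior ethanol co-evaporation in some methods. Solution made up to set weight, undissolved base collected and weighed to calculate dissolved amount. Solution pH measured.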

[4] = solution of the salt in saline, before any adjustment
[5] = aqueous solution of the salt, Table 5
[6] = aqueous solution of the citrate, filtered, 9.5-10 mg/ml

SMILES: CC(=O)[C@H]1CC[C@H]2[C@@H]3CC[C@H]4C[C@H](O)CC[C@]4(C)[C@H]3[C@@H](OC(=O)CNCC(C)(C)C)C[C@]12C [Example 34, 11β-N-2',2'-dimethylpropylaminoacetoxy-3α-hydroxy-5α-pregnan-20-one]
- activity shown in our tests (preference grade) [1]: particularly preferred on account of the activity shown in our tests

SMILES: CCO[C@H]1C[C@@]2(C)[C@@H](CC[C@@H]3[C@@H]2[C@@H](OC(=O)CN(CC)CC)C[C@]2(C)[C@@H](C(C)=O)CC[C@@H]32)C[C@@H]1O [Example 101, 2β-Ethoxy-11β-diethylaminoacetoxy-3α-hydroxy-5α-pregnan-20-one]
- activity shown in our tests (preference grade) ([1]; listed as Compound No. 6): especially preferred

SMILES: CCCCN(C)CC(=O)O[C@H]1C[C@]2(C)[C@@H](C(C)=O)CC[C@H]2[C@@H]2CC[C@H]3C[C@H](O)CC[C@]3(C)[C@H]21 [Example 111, 11β-(N-Butyl-N-methylaminoacetoxy)-3α-hydroxy-5α-pregnan-20-one]
- activity shown in our tests (preference grade) ([1]; listed as Compound No. 10): especially preferred

SMILES: CCCCN(CC)CC(=O)O[C@H]1C[C@]2(C)[C@@H](C(C)=O)CC[C@H]2[C@@H]2CC[C@H]3C[C@H](O)CC[C@]3(C)[C@H]21 [Example 115, 11β-(N-Butyl-N-ethylaminoacetoxy)-3α-hydroxy-5α-pregnan-20-one]
- activity shown in our tests (preference grade) ([1]; listed as Compound No. 12): especially preferred

SMILES: CCCN(CCC)CC(=O)O[C@H]1C[C@]2(C)[C@@H](C(C)=O)CC[C@H]2[C@@H]2CC[C@H]3C[C@H](O)CC[C@]3(C)[C@H]21 [Example 218]
- pH [2, 4]: 3.38
- Dissolved aminoester ([3]; method C, 0.9% w/v saline in place of water, WT. of solution 95 g): 951 mg

SMILES: CCCN(CCC)CC(=O)O[C@H]1C[C@]2(C)[C@@H](C(C)=O)CC[C@H]2[C@@H]2CC[C@H]3C[C@H](O)CC[C@]3(C)[C@H]21 [Example 219]
- pH [2, 5]: 3.77
- Dissolved aminoester ([3]; method D: 1 molar part acid, undissolved material weighed, WT. of solution 10 g, except Ex. 136: 8.95, 140: 9.52, 165 and 167: 10.1, 190 and 198: 9.8, 191: 8.9, 194: 6.6, 204: 10.09, 219: 10.6 g): 106 mg

SMILES: CCCCN(CC)CC(=O)O[C@H]1C[C@]2(C)[C@@H](C(C)=O)CC[C@H]2[C@@H]2CC[C@H]3C[C@H](O)CC[C@]3(C)[C@H]21 [Example 220]
- pH [2, 5]: 3.6
- Dissolved aminoester ([3]; method E: as C with further acid, WT. of solution Ex. 160: 6.12, 161: 7.8, 203: 12.7, 212: 12.125, 220: 10 g): 100 mg

SMILES: CCCCN(CC)CC(=O)O[C@H]1C[C@]2(C)[C@@H](C(C)=O)CC[C@H]2[C@@H]2CC[C@H]3C[C@H](O)CC[C@]3(C)[C@H]21 [Example 221]
- pH [2, 5]: 3.52
- Dissolved aminoester ([3]; method A: clear solution, 1 molar part acid, made up with water to WT. of solution 10 g, except Ex. 121 and 150: 12, 123: 12.3, 124: 7.5, 129: 10.3, 135 and 139: 8.95, 164: 10.35, 170: 10.4, 181: 10.04, 187: 9.5, 210: 10.2, 221: 15 g): 150 mg

SMILES: CCCCN(CC)CC(=O)O[C@H]1C[C@]2(C)[C@@H](C(C)=O)CC[C@H]2[C@@H]2CC[C@H]3C[C@H](O)CC[C@]3(C)[C@H]21.O=C(O)CC(O)(CC(=O)O)C(=O)O [Example 222, 11β-(N-Butyl-N-ethylaminoacetoxy)-3α-hydroxy-5α-pregnan-20-one, citrate salt]
- pH ([2]; solution in 0.9% w/v saline, pH adjusted with sodium hydroxide solution, citrate salt): 3.97
- pH ([2]; solution in 0.9% w/v saline, pH adjusted with sodium hydroxide solution, listed as Example 224, citrate salt): 4.00
- pH [2, 4]: 3.62
- Dissolved aminoester ([3]; method A, 0.9% w/v saline in place of water, WT. of solution Ex. 122: 37.5 g, 222: 50 g): 500 mg

SMILES: CCO[C@H]1C[C@@]2(C)[C@@H](CC[C@@H]3[C@@H]2[C@@H](OC(=O)CN(CC)CC)C[C@]2(C)[C@@H](C(C)=O)CCC[C@@H]32)C[C@@H]1O [Example 225 citrate salt]
- pH [2, 6]: 3.66
- concentration of aqueous solution of the citrate [3]: 9750 µg/mL

SMILES: CCCN(CCC)CC(=O)O[C@H]1C[C@]2(C)[C@@H](C(C)=O)CCC[C@H]2[C@@H]2CC[C@H]3C[C@H](O)[C@@H](OCC)C[C@]3(C)[C@H]21 [Example 226 citrate salt]
- pH [2, 6]: 2.85
- concentration of aqueous solution of the citrate [3]: 9500 µg/mL

SMILES: CCCN(CCC)CC(=O)O[C@H]1C[C@]2(C)[C@@H](C(C)=O)CC[C@H]2[C@@H]2CC[C@H]3C[C@H](O)CC[C@@H]3[C@H]21 [Example 227 citrate salt]
- pH [2, 6]: 3.0
- concentration of aqueous solution of the citrate [3]: 10000 µg/mL

SMILES: CCCCN(C)CC(=O)O[C@H]1C[C@]2(C)[C@@H](C(C)=O)CC[C@H]2[C@@H]2CC[C@H]3C[C@H](O)CC[C@@H]3[C@H]21 [Example 228 citrate salt]
- pH [2, 6]: 3.77
- concentration of aqueous solution of the citrate [3]: 10000 µg/mL

SMILES: CC(=O)[C@H]1CC[C@H]2[C@@H]3CC[C@H]4C[C@H](O)CC[C@@H]4[C@H]3[C@@H](OC(=O)CN3CCC(C)CC3)C[C@]12C [Example 229 citrate salt]
- pH [2, 6]: 3.73
- concentration of aqueous solution of the citrate [3]: 10000 µg/mL

SMILES: CCN(CC(=O)O[C@H]1C[C@]2(C)[C@@H](C(C)=O)CC[C@H]2[C@@H]2CC[C@H]3C[C@H](O)CC[C@]3(C)[C@H]21)C(C)CC(C)C (stereo partly drawn) [compound 23, 11β-N-1',3'-dimethylbutyl-N-ethylaminoacetoxy-3α-hydroxy-5α-pregnan-20-one]
- activity shown in our tests (preference grade) [1]: particularly preferred on account of the activity shown in our tests

SMILES: CCO[C@H]1C[C@@]2(C)[C@@H](CC[C@@H]3[C@@H]2[C@@H](OC(=O)CNC(C)CC(C)C)C[C@]2(C)[C@@H](C(C)=O)CC[C@@H]32)C[C@@H]1O (stereo partly drawn) [compound 29, 2β-ethoxy-3α-hydroxy-11β-N-1',3'-dimethylbutylaminoacetoxy-5α-pregnan-20-one]
- activity shown in our tests (preference grade) [1]: particularly preferred on account of the activity shown in our tests
